What was measured:
[1] = Freeze-thaw stability in spiked pooled human plasma; assay type: physicochemical
[2] = Autosampler stability of ready for injection samples; assay type: physicochemical, human
[3] = parameters: method as in supplement references [1-55] as printed per drug; conditions: minimum steady-state blood plasma concentration after multiple dose administration; ref supplement references [1-55] per drug; cited from earlier work
[4] = Long-term stability in spiked pooled human plasma
[5] = Short-term stability in spiked pooled human plasma (bench-top, 4 °C, 56 °C)

C[C@H]1Oc2cc(cnc2N)-c2c(nn(C)c2C#N)CN(C)C(=O)c2ccc(F)cc21 [Lorlatinib]
Freeze-Thaw Accuracy [%] ([1]; validation standard 2xLLOV): 95.0% | Freeze-Thaw Accuracy [%] ([1]; validation standard LLOV): 96.0% | Freeze-Thaw Accuracy [%] ([1]; validation standard MOV): 95.2% | Freeze-Thaw Accuracy [%] ([1]; validation standard ULOV): 97.6% | Autosampler (24h, 4°C) Accuracy [%] ([2]; validation standard 2xLLOV): 101.6% | Autosampler (72h, 4°C) Accuracy [%] ([2]; validation standard 2xLLOV): 99.0% | Autosampler (24h, 4°C) Accuracy [%] ([2]; validation standard LLOV): 96.7% | Autosampler (72h, 4°C) Accuracy [%] ([2]; validation standard LLOV): 94.8% | Autosampler (24h, 4°C) Accuracy [%] ([2]; validation standard MOV): 102.0% | Autosampler (72h, 4°C) Accuracy [%] ([2]; validation standard MOV): 100.8% | Autosampler (24h, 4°C) Accuracy [%] ([2]; validation standard ULOV): 99.7% | Autosampler (72h, 4°C) Accuracy [%] ([2]; validation standard ULOV): 99.2% | cmin [3]: 150 ng/mL | Long-term stability, 1 month, -20°C Accuracy [%] ([4]; validation standard 2xLLOV): 89.2% | Long-term stability, 1 month, -80°C Accuracy [%] ([4]; validation standard 2xLLOV): 84.9% | Long-term stability, 2 month, -20°C Accuracy [%] ([4]; validation standard 2xLLOV): 91.9% | Long-term stability, 2 month, -80°C Accuracy [%] ([4]; validation standard 2xLLOV): 91.9% | Long-term stability, 3 month, -20°C Accuracy [%] ([4]; validation standard 2xLLOV): 91.7% | Long-term stability, 3 month, -80°C Accuracy [%] ([4]; validation standard 2xLLOV): 90.8% | Long-term stability, 6 weeks, 4°C, without daylight Accuracy [%] ([4]; validation standard 2xLLOV): 96.7% | Long-term stability, 1 month, -20°C Accuracy [%] ([4]; validation standard LLOV): 87.9% | Long-term stability, 1 month, -80°C Accuracy [%] ([4]; validation standard LLOV): 82.6% | Long-term stability, 2 month, -20°C Accuracy [%] ([4]; validation standard LLOV): 90.0% | Long-term stability, 2 month, -80°C Accuracy [%] ([4]; validation standard LLOV): 87.6% | Long-term stability, 3 month, -20°C Accuracy [%] ([4]; validation standard LLOV): 95.7% | Long-term stability, 3 month, -80°C Accuracy [%] ([4]; validation standard LLOV): 93.2% | Long-term stability, 6 weeks, 4°C, without daylight Accuracy [%] ([4]; validation standard LLOV): 97.1% | Long-term stability, 1 month, -20°C Accuracy [%] ([4]; validation standard MOV): 88.5% | Long-term stability, 1 month, -80°C Accuracy [%] ([4]; validation standard MOV): 87.8% | Long-term stability, 2 month, -20°C Accuracy [%] ([4]; validation standard MOV): 93.9% | Long-term stability, 2 month, -80°C Accuracy [%] ([4]; validation standard MOV): 91.2% | Long-term stability, 3 month, -20°C Accuracy [%] ([4]; validation standard MOV): 90.9% | Long-term stability, 3 month, -80°C Accuracy [%] ([4]; validation standard MOV): 89.2% | Long-term stability, 6 weeks, 4°C, without daylight Accuracy [%] ([4]; validation standard MOV): 93.7% | Long-term stability, 1 month, -20°C Accuracy [%] ([4]; validation standard ULOV): 90.6% | Long-term stability, 1 month, -80°C Accuracy [%] ([4]; validation standard ULOV): 87.4% | Long-term stability, 2 month, -20°C Accuracy [%] ([4]; validation standard ULOV): 91.4% | Long-term stability, 2 month, -80°C Accuracy [%] ([4]; validation standard ULOV): 91.7% | Long-term stability, 3 month, -20°C Accuracy [%] ([4]; validation standard ULOV): 91.0% | Long-term stability, 3 month, -80°C Accuracy [%] ([4]; validation standard ULOV): 89.2% | Long-term stability, 6 weeks, 4°C, without daylight Accuracy [%] ([4]; validation standard ULOV): 91.4% | Short-time stability (1h, 56°C) Accuracy [%] ([5]; validation standard 2xLLOV): 60.0% | Short-time stability (24h, 4°C, without daylight) Accuracy [%] ([5]; validation standard 2xLLOV): 99.8% | Short-time stability (24h, RT, with daylight) Accuracy [%] ([5]; validation standard 2xLLOV): 98.9% | Short-time stability (24h, RT, without daylight) Accuracy [%] ([5]; validation standard 2xLLOV): 99.6% | Short-time stability (1h, 56°C) Accuracy [%] ([5]; validation standard LLOV): 54.3% | Short-time stability (24h, 4°C, without daylight) Accuracy [%] ([5]; validation standard LLOV): 98.8% | Short-time stability (24h, RT, with daylight) Accuracy [%] ([5]; validation standard LLOV): 96.4% | Short-time stability (24h, RT, without daylight) Accuracy [%] ([5]; validation standard LLOV): 97.8% | Short-time stability (1h, 56°C) Accuracy [%] ([5]; validation standard MOV): 57.8% | Short-time stability (24h, 4°C, without daylight) Accuracy [%] ([5]; validation standard MOV): 101.8% | Short-time stability (24h, RT, with daylight) Accuracy [%] ([5]; validation standard MOV): 100.2% | Short-time stability (24h, RT, without daylight) Accuracy [%] ([5]; validation standard MOV): 99.2% | Short-time stability (1h, 56°C) Accuracy [%] ([5]; validation standard ULOV): 50.7% | Short-time stability (24h, 4°C, without daylight) Accuracy [%] ([5]; validation standard ULOV): 97.0% | Short-time stability (24h, RT, with daylight) Accuracy [%] ([5]; validation standard ULOV): 100.4% | Short-time stability (24h, RT, without daylight) Accuracy [%] ([5]; validation standard ULOV): 99.9%

From paper PMC8699473, “An Easily Expandable Multi-Drug LC-MS Assay for the Simultaneous Quantification of 57 Oral Antitumor Drugs in Human Plasma” (Cancers, 2021)
